According to DBAASP:
Values after ≈ are worked out from the molar mass of the structure shown.

Columns and labels:
Assay in all cases: ≥ marks a high value that may be exact or a test limit, other limits are often not marked, values filed in µg/mL are converted to µM
[1] = tested on: Bacillus subtilis KCTC 3068
[2] = tested on: Escherichia coli KCTC 1682
[3] = tested on: Pseudomonas aeruginosa KCTC 1637
[4] = tested on: Salmonella typhimurium KCTC 1926
[5] = tested on: Staphylococcus aureus KCTC 1621
[6] = tested on: Staphylococcus epidermidis KCTC 1917
[7] = tested on: Escherichia coli ATCC 8739
[8] = tested on: Escherichia coli ATCC 25922
Klebsiella pneumoniae = tested on: Klebsiella pneumoniae
[9] = tested on: Pseudomonas aeruginosa ATCC 27853
Bacillus subtilis = tested on: Bacillus subtilis
Pseudomonas aeruginosa = tested on: Pseudomonas aeruginosa
[10] = tested on: Staphylococcus epidermidis
Acinetobacter baumannii = tested on: Acinetobacter baumannii
Escherichia coli UB1005 = tested on: Escherichia coli UB1005
Escherichia coli = tested on: Escherichia coli
[11] = tested on: Salmonella enterica subsp. enterica serovar Typhimurium C77-31
[12] = tested on: Staphylococcus aureus ATCC 25923
[13] = tested on: Staphylococcus aureus ATCC 29213
Staphylococcus aureus = tested on: Staphylococcus aureus
[14] = tested on: Staphylococcus epidermidis ATCC 12228

MIC [1] [µM] | MIC [2] [µM] | MIC [3] [µM] | MIC [4] [µM] | MIC [5] [µM] | MIC [6] [µM] | MIC [7] [µM] | MIC [8] [µM] | MIC (Pseudomonas aeruginosa) [µM] | MIC [12] [µM] | also measured | SMILES
8 (≈ 15.9 µg/mL) | 4 (≈ 7.93 µg/mL) | 16 (≈ 31.7 µg/mL) | 2 (≈ 3.97 µg/mL) | 2 (≈ 3.97 µg/mL) | 4 (≈ 7.93 µg/mL) |  |  |  |  |  | CC(C)C[C@H](NC(=O)[C@H](Cc1c[nH]c2ccccc12)NC(=O)[C@H](CCCN=C(N)N)NC(=O)[C@H](CCCCN)NC(=O)[C@H](Cc1c[nH]c2ccccc12)NC(=O)[C@H](CCCN=C(N)N)NC(=O)[C@H](CCC(N)=O)NC(=O)[C@@H](NC(=O)[C@H](Cc1c[nH]c2ccccc12)NC(=O)[C@H](CCCN=C(N)N)NC(=O)[C@H](CCCCN)NC(=O)[C@@H](N)Cc1c[nH]c2ccccc12)C(C)C)C(=O)N[C@@H](CCCN=C(N)N)C(N)=O [WKRWVQRWKRWLR]
 |  |  |  |  |  | 29.6 (≈ 64 µg/mL) |  |  |  |  | CC[C@H](C)[C@H](NC(=O)[C@H](CCCCN)NC(=O)[C@H](CO)NC(=O)[C@H](C)NC(=O)[C@@H](NC(=O)[C@H](CCCN=C(N)N)NC(=O)[C@H](CC(=O)O)NC(=O)[C@H](CC(C)C)NC(=O)[C@H](CC(C)C)NC(=O)[C@H](CCCCN)NC(=O)[C@H](CC(C)C)NC(=O)[C@@H](NC(=O)[C@@H](NC(=O)[C@H](CC(N)=O)NC(=O)[C@H](CC(N)=O)NC(=O)[C@@H](NC(=O)[C@H](CCCCN)NC(=O)[C@H](CCCCN)NC(=O)[C@@H]1CCCN1)[C@@H](C)CC)[C@@H](C)O)[C@@H](C)CC)C(C)C)C(=O)O [PKKINNTILKLLDRVASKI]
 |  |  |  |  |  | ≥ 100 | > 100 |  |  | MIC (Klebsiella pneumoniae): > 100 µM; MIC [9]: > 100 µM | CC[C@H](C)[C@H](NC(=O)[C@H](CCCCN)NC(=O)[C@H](CC(C)C)NC(=O)CNC(=O)[C@H](CC(C)C)NC(=O)[C@H](CO)NC(=O)[C@H](CCCN=C(N)N)NC(=O)[C@H](CC(C)C)NC(=O)CNC(=O)CNC(C)=O)C(=O)N[C@@H](CC(C)C)C(=O)N[C@@H](CC(C)C)C(=O)N[C@@H](C)C(=O)N[C@@H](Cc1c[nH]c2ccccc12)C(=O)N[C@@H](CCCCN)C(=O)N[C@@H](CCCCN)C(=O)N[C@@H](Cc1ccc(O)cc1)C(=O)NCC(N)=O [GGLRSLGLKILLAWKKYG]
1 (≈ 2.3 µg/mL) | 2 (≈ 4.6 µg/mL) | 2 (≈ 4.6 µg/mL) | 1 (≈ 2.3 µg/mL) | 2 (≈ 4.6 µg/mL) | 1 (≈ 2.3 µg/mL) |  |  |  |  |  | CC[C@H](C)[C@H](NC(=O)[C@H](CCCCN)NC(=O)[C@H](Cc1c[nH]c2ccccc12)NC(=O)[C@H](Cc1ccccc1)NC(=O)[C@H](CC(C)C)NC(=O)[C@H](CCCCN)NC(=O)[C@H](CCCCN)NC(=O)[C@@H](N)CCCCN)C(=O)N1CCC[C@H]1C(=O)N[C@@H](CCCCN)C(=O)N[C@@H](Cc1ccccc1)C(=O)N[C@@H](CC(C)C)C(=O)N[C@@H](Cc1cnc[nH]1)C(=O)N[C@@H](CC(C)C)C(=O)N[C@@H](C)C(=O)N[C@@H](CCCCN)C(=O)N[C@@H](CCCCN)C(=O)N[C@@H](Cc1ccccc1)C(N)=O [KKKLFWKIPKFLHLAKKF]
4 (≈ 10.9 µg/mL) | 4 (≈ 10.9 µg/mL) | 2 (≈ 5.45 µg/mL) | 2 (≈ 5.45 µg/mL) | 1 (≈ 2.73 µg/mL) | 1 (≈ 2.73 µg/mL) |  |  |  |  |  | CC(C)C[C@H](NC(=O)[C@H](Cc1ccc(O)cc1)NC(=O)[C@H](Cc1cnc[nH]1)NC(=O)[C@@H](NC(=O)[C@H](CC(C)C)NC(=O)[C@H](C)NC(=O)[C@H](C)NC(=O)[C@H](CCCCN)NC(=O)CNC(=O)[C@@H](NC(=O)[C@H](Cc1cnc[nH]1)NC(=O)[C@H](CCCCN)NC(=O)[C@H](C)NC(=O)[C@@H](NC(=O)[C@H](Cc1cnc[nH]1)NC(=O)[C@H](C)NC(=O)[C@H](C)NC(=O)[C@H](CCCCN)NC(=O)[C@H](CCCCN)NC(=O)[C@H](Cc1ccccc1)NC(=O)[C@H](Cc1ccccc1)NC(=O)[C@H](CO)NC(=O)CNC(=O)[C@H](Cc1c[nH]c2ccccc12)NC(=O)CN)C(C)C)C(C)C)[C@@H](C)O)C(=O)O [GWGSFFKKAAHVAKHVGKAALTHYL]
 |  |  |  |  |  | 30 (≈ 31.5 µg/mL) |  | 30 (≈ 31.5 µg/mL) |  | MIC (Bacillus subtilis): 30 µM (≈ 31.5 µg/mL); MIC [10]: ≥ 60 µM | CC(C)C[C@H](NC(=O)[C@H](CCCCN)NC(=O)[C@H](Cc1c[nH]c2ccccc12)NC(=O)[C@H](C)N)C(=O)N[C@@H](Cc1ccccc1)C(=O)N[C@@H](CC(=O)O)C(=O)N[C@@H](CC(=O)O)C(=O)NCC(=O)N[C@H](C(=O)O)C(C)C [AWKLFDDGV]
 |  |  |  |  |  |  | 2 (≈ 3.28 µg/mL) | 4 (≈ 6.57 µg/mL) | 2 (≈ 3.28 µg/mL) | MIC (Acinetobacter baumannii): 1.41 µM (≈ 2.32 µg/mL); MIC (Escherichia coli UB1005): 2 µM (≈ 3.28 µg/mL); MIC (Escherichia coli): 1 µM (≈ 1.64 µg/mL); MIC [11]: 2 µM (≈ 3.28 µg/mL); MIC [13]: 1 µM (≈ 1.64 µg/mL); MIC (Staphylococcus aureus): 2 µM (≈ 3.28 µg/mL); MIC [14]: 2 µM (≈ 3.28 µg/mL) | CC(C)[C@H](NC(=O)[C@H](CCCCN)NC(=O)[C@H](Cc1c[nH]c2ccccc12)NC(=O)[C@H](CCCCN)NC(=O)[C@@H](NC(=O)[C@H](CCCCN)NC(=O)[C@H](Cc1c[nH]c2ccccc12)NC(=O)[C@H](CCCCN)NC(=O)[C@@H](NC(=O)[C@H](CCCCN)NC(=O)[C@@H](N)Cc1c[nH]c2ccccc12)C(C)C)C(C)C)C(=O)N[C@@H](CCCCN)C(N)=O [WKVKWKVKWKVK]
 |  |  |  |  |  | ≥ 111 |  |  | 111 (≈ 256 µg/mL) |  | CC[C@H](C)[C@H](NC(=O)[C@H](CCCCN)NC(=O)[C@H](CO)NC(=O)[C@H](CO)NC(=O)[C@H](CC(C)C)NC(=O)[C@H](CCCCN)NC(=O)[C@H](CCCCN)NC(=O)[C@H](CC(C)C)NC(=O)[C@H](CC(C)C)NC(=O)[C@H](CCCCN)NC(=O)[C@H](CCC(N)=O)NC(=O)[C@H](Cc1ccc(O)cc1)NC(=O)[C@H](Cc1ccccc1)NC(=O)[C@H](CCC(N)=O)NC(=O)[C@H](CO)NC(=O)[C@H](CCC(=O)O)NC(=O)[C@H](CCCN=C(N)N)NC(=O)[C@H](CC(N)=O)NC(=O)[C@@H]1CCCN1)C(=O)O [PNRESQFYQKLLKKLSSKI]
 |  |  |  |  |  |  | 4 (≈ 7.26 µg/mL) | > 64 | 8 (≈ 14.5 µg/mL) | MIC (Acinetobacter baumannii): ≥ 32 µM; MIC (Escherichia coli UB1005): 4 µM (≈ 7.26 µg/mL); MIC (Escherichia coli): 2 µM (≈ 3.63 µg/mL); MIC [11]: 4 µM (≈ 7.26 µg/mL); MIC [13]: 4 µM (≈ 7.26 µg/mL); MIC (Staphylococcus aureus): 4 µM (≈ 7.26 µg/mL); MIC [14]: 8 µM (≈ 14.5 µg/mL) | C[C@@H](O)[C@H](NC(=O)[C@H](CCCN=C(N)N)NC(=O)[C@H](Cc1c[nH]c2ccccc12)NC(=O)[C@H](CCCN=C(N)N)NC(=O)[C@@H](NC(=O)[C@H](CCCN=C(N)N)NC(=O)[C@H](Cc1c[nH]c2ccccc12)NC(=O)[C@H](CCCN=C(N)N)NC(=O)[C@@H](NC(=O)[C@H](CCCN=C(N)N)NC(=O)[C@@H](N)Cc1c[nH]c2ccccc12)[C@@H](C)O)[C@@H](C)O)C(=O)N[C@@H](CCCN=C(N)N)C(N)=O [WRTRWRTRWRTR]
 |  |  |  |  |  | 4.42 (≈ 9.2 µg/mL) | 8.84 (≈ 18.4 µg/mL) |  |  | MIC (Klebsiella pneumoniae): 8.84 µM (≈ 18.4 µg/mL); MIC [9]: 8.84 µM (≈ 18.4 µg/mL) | CC[C@H](C)[C@H](NC(=O)[C@H](CCCCN)NC(=O)[C@H](CCCN=C(N)N)NC(=O)CNC(=O)[C@H](CC(C)C)NC(=O)[C@H](CCCN=C(N)N)NC(=O)[C@H](CCCN=C(N)N)NC(=O)[C@H](CC(C)C)NC(=O)CNC(=O)CNC(C)=O)C(=O)N[C@@H](CC(C)C)C(=O)N[C@@H](CCCN=C(N)N)C(=O)N[C@@H](C)C(=O)N[C@H](C(=O)N[C@@H](CCCCN)C(=O)N[C@@H](CCCCN)C(=O)N[C@@H](Cc1ccc(O)cc1)C(=O)NCC(N)=O)C(C)C [GGLRRLGRKILRAVKKYG]
